≈ marks a conversion by molar mass, not a printed value. Where two headings read alike, the source gives them in different places.
Tests used:
[1] = tested on: Corynebacterium pyogenes C-21; assay: In vitro antibacterial activity (MIC, agar dilution method); type: cell-based
Procedure: (§1) The minimum inhibitory concentrations (MIC, μg/ml) of the following compounds in vitro were measured by the agar dilution method of [Chemotherapy, Vol. 22, No. 16, page 1126 (1974)].

[2] = tested on: Staphylococcus aureus No. 80; assay: as above; type: cell-based
Procedure: as §1

[3] = tested on: Streptococcus faecalis P-2473; assay: as above; type: cell-based; details: Enterococcus faecalis, P2473, read-out: minimum inhibitory concentration (MIC)
Procedure: as §1

[4] = tested on: Enterobacter cloacae P-2540; assay: as above; type: cell-based
Procedure: as §1

[5] = tested on: Klebsiella pneumoniae No. 13; assay: as above; type: cell-based
Procedure: as §1

Proteus morganii Kono = assay: as above; type: cell-based; details: Morganella morganii, read-out: minimum inhibitory concentration (MIC)
Procedure: as §1

Shigella flexneri 2a = assay: as above; type: cell-based; details: read-out: minimum inhibitory concentration (MIC)
Procedure: as §1

[6] = tested on: Staphylococcus aureus Smith; assay: as above; type: cell-based; details: read-out: minimum inhibitory concentration (MIC)
Procedure: as §1

[7] = tested on: Serratia marcescens IFO 3736; assay: as above; type: cell-based
Procedure: as §1

Escherichia coli P-5101 [8] = assay: as above; type: cell-based
Procedure: as §1

[9] = tested on: Streptococcus pyogenes 65A; assay: as above; type: cell-based; details: read-out: minimum inhibitory concentration (MIC)
Procedure: as §1

Proteus mirabilis P-2381 = assay: as above; type: cell-based
Procedure: as §1

[10] = tested on: Salmonella enteritidis No. 1891; assay: as above; type: cell-based; details: Salmonella enterica, read-out: minimum inhibitory concentration (MIC)
Procedure: as §1

[11] = tested on: Escherichia coli NIHJ JC-2; assay: as above; type: cell-based
Procedure: as §1

[12] = tested on: Staphylococcus aureus 209P JC-1; assay: as above; type: cell-based; details: read-out: minimum inhibitory concentration (MIC)
Procedure: as §1

[13] = tested on: Shigella flexneri 4a P-330; assay: as above; type: cell-based; details: 4AP330, read-out: minimum inhibitory concentration (MIC)
Procedure: as §1

[14] = tested on: Staphylococcus aureus No. 50774; assay: as above; type: cell-based
Procedure: as §1

[15] = tested on: Salmonella typhimurium S-9; assay: as above; type: cell-based; details: Salmonella enterica, read-out: minimum inhibitory concentration (MIC)
Procedure: as §1

[16] = tested on: Pseudomonas aeruginosa Tsuchiijima; assay: as above; type: cell-based; details: read-out: minimum inhibitory concentration (MIC)
Procedure: as §1

Escherichia coli P-140a = assay: as above; type: cell-based; details: read-out: minimum inhibitory concentration (MIC)
Procedure: as §1

[17] = tested on: Staphylococcus epidermidis No. 8; assay: as above; type: cell-based
Procedure: as §1

[18] = tested on: Pseudomonas aeruginosa No. 12; assay: as above; type: cell-based
Procedure: as §1

[19] = tested on: Pseudomonas aeruginosa No. 12; assay: In vivo efficacy against systemic infections in mice (intraperitoneal infection); design: species or system male mice (ddY); details: NO.12, 168 h, po, twice, about 5 minutes and 6 hours after intraperitoneal infection, observed 7 days
Procedure: (§2) Each of the solutions was orally administered to mice infected with each of test organisms under the conditions described below, and the medium effective doses (ED50) obtained are shown in Table II. Male mice (ddY) weighing about 20 g (4) Pseudomonas aeruginosa No. 12: Intraperitoneal infection with about 5×10^3 cells per mouse suspended in trypto-soy broth with 4% mucin. Twice, about 5 minutes and 6 hours after infection. |Escherichia coli P-5101 for 7 days |Pseudomonas aeruginosa No. 12 | The numerals in the table show ED50 (mg/kg). ED50 values were | calculated in accordance with the BehrensKaerber method (Arch. Exp. Path. | Pharm., 162, 480 (1931)). | po: oral administration.

Escherichia coli P-5101 [20] = assay: as above; design: species or system male mice (ddY); details: P5101, 168 h, po, twice, about 5 minutes and 6 hours after intraperitoneal infection, observed 7 days
Procedure: as §2, with “(3) Escherichia coli P-5101:” for “(4) Pseudomonas aeruginosa No. 12:”, “9×10^6” for “5×10^3”, “days” for “days |Pseudomonas aeruginosa No. 12”

[21] = Corynebacterium pyogenes, C21, read-out: minimum inhibitory concentration (MIC)
[22] = Staphylococcus aureus, NO.80, read-out: minimum inhibitory concentration (MIC)
[23] = Enterobacter cloacae, P2540, read-out: minimum inhibitory concentration (MIC)
[24] = Klebsiella pneumoniae, NO.13, read-out: minimum inhibitory concentration (MIC)
[25] = Serratia marcescens, IFO3736, read-out: minimum inhibitory concentration (MIC)
[26] = Escherichia coli, P5101, read-out: minimum inhibitory concentration (MIC)
[27] = Escherichia coli, NIHJJC2, read-out: minimum inhibitory concentration (MIC)
[28] = Staphylococcus aureus, NO.50774, read-out: minimum inhibitory concentration (MIC)
[29] = P140A, Escherichia coli P-140a, agar dilution
[30] = Staphylococcus epidermidis, NO.8, read-out: minimum inhibitory concentration (MIC)
[31] = Pseudomonas aeruginosa, NO.12, read-out: minimum inhibitory concentration (MIC)
[32] = C21, Corynebacterium pyogenes C-21, agar dilution, read-out: minimum inhibitory concentration (MIC)
[33] = Staphylococcus aureus Smith, agar dilution
[34] = P5101, Escherichia coli P-5101, agar dilution, read-out: minimum inhibitory concentration (MIC)
[35] = P2381, Proteus mirabilis P-2381, agar dilution, read-out: minimum inhibitory concentration (MIC)
[36] = Salmonella enteritidis No. 1891, agar dilution
[37] = Staphylococcus aureus 209P JC-1, agar dilution
[38] = Staphylococcus aureus No. 50774, agar dilution, read-out: minimum inhibitory concentration (MIC)
[39] = Salmonella typhimurium S-9, agar dilution
[40] = Staphylococcus aureus No. 80, agar dilution, read-out: minimum inhibitory concentration (MIC)
[41] = P2540, Enterobacter cloacae P-2540, agar dilution, read-out: minimum inhibitory concentration (MIC)
[42] = Klebsiella pneumoniae No. 13, agar dilution, read-out: minimum inhibitory concentration (MIC)
[43] = Proteus morganii Kono, agar dilution
[44] = IFO3736, Serratia marcescens IFO 3736, agar dilution, read-out: minimum inhibitory concentration (MIC)
[45] = Streptococcus pyogenes 65A, agar dilution
[46] = NIHJJC2, Escherichia coli NIHJ JC-2, agar dilution, read-out: minimum inhibitory concentration (MIC)
[47] = Pseudomonas aeruginosa Tsuchiijima, agar dilution
[48] = Staphylococcus epidermidis No. 8, agar dilution, read-out: minimum inhibitory concentration (MIC)
[49] = Pseudomonas aeruginosa No. 12, agar dilution, read-out: minimum inhibitory concentration (MIC)

| Structure (SMILES) | MIC [2, 22] [µg/mL] | MIC [3] [µg/mL] | MIC (Shigella flexneri 2a) [µg/mL] | MIC ([6]; Staphylococcus aureus) [µg/mL] | MIC ([9]; Streptococcus pyogenes, 65A) [µg/mL] | MIC ([12]; Staphylococcus aureus, 209P) [µg/mL] | MIC [13] [µg/mL] | MIC [14, 28] [µg/mL] | MIC ([16]; Pseudomonas aeruginosa) [µg/mL] | MIC (Escherichia coli P-140a; [29]) [µg/mL] | MIC [17, 30] [µg/mL] | MIC [18, 31] [µg/mL] | MIC [1, 32] [µg/mL] | MIC (Escherichia coli P-5101 [8]; [34]) [µg/mL] | MIC (Proteus mirabilis P-2381; [35]) [µg/mL] | MIC [10, 36] [µg/mL] | MIC [15, 39] [µg/mL] | MIC [4, 41] [µg/mL] | MIC [5, 42] [µg/mL] | MIC (Proteus morganii Kono; [43]) [µg/mL] | other results |
| --- | --- | --- | --- | --- | --- | --- | --- | --- | --- | --- | --- | --- | --- | --- | --- | --- | --- | --- | --- | --- | --- |
| CCn1cc(C(=O)O)c(=O)c2ccc(C)nc21 [Compound D, 1-Ethyl-1,4-dihydro-7-methyl-4-oxo-1,8-naphthyridine-3-carboxylic acid] | 25 (≈ 108 µM) | > 200 | 6.25 (≈ 26.9 µM) | 25 (≈ 108 µM) | > 200 | 100 (≈ 431 µM) | 3.13 (≈ 13.5 µM) | 50 (≈ 215 µM) | 200 (≈ 861 µM) | 1.56 (≈ 6.72 µM) | 25 (≈ 108 µM) | 200 (≈ 861 µM) | – | – | – | – | – | – | – | – | MIC [1, 21]: > 200 µg/mL; MIC [4, 23]: 6.25 µg/mL (≈ 26.9 µM); MIC [5, 24]: 12.5 µg/mL (≈ 53.8 µM); MIC (Proteus morganii Kono): 6.25 µg/mL (≈ 26.9 µM); MIC [7, 25]: 6.25 µg/mL (≈ 26.9 µM); MIC (Escherichia coli P-5101 [8]; [26]): 3.13 µg/mL (≈ 13.5 µM); MIC (Proteus mirabilis P-2381; Proteus mirabilis, P2381, read-out: minimum inhibitory concentration (MIC)): 6.25 µg/mL (≈ 26.9 µM); MIC ([10]; ENTERITIDIS): 3.13 µg/mL (≈ 13.5 µM); MIC [11, 27]: 12.5 µg/mL (≈ 53.8 µM); MIC ([15]; TYPHIMURIUM): 3.13 µg/mL (≈ 13.5 µM) |
| CCn1cc(C(=O)O)c(=O)c2cc(F)c(N3CCCC3)nc21 [Compound C, 1-Ethyl-6-fluoro-1,4-dihydro-4-oxo-7-(1-pyrrolidinyl)-1,8-naphthyridine-3-carboxylic acid] | 0.2 (≈ 0.655 µM) | 6.25 (≈ 20.5 µM) | 1.56 (≈ 5.11 µM) | – | 3.13 (≈ 10.3 µM) | – | 3.13 (≈ 10.3 µM) | – | 3.13 (≈ 10.3 µM) | 0.78 (≈ 2.55 µM) | 0.39 (≈ 1.28 µM) | 3.13 (≈ 10.3 µM) | 0.78 (≈ 2.55 µM) | 0.78 (≈ 2.55 µM) | 6.56 (≈ 21.5 µM) | 0.39 (≈ 1.28 µM) | 0.78 (≈ 2.55 µM) | – | – | – | MIC [4, 23]: 1.56 µg/mL (≈ 5.11 µM); MIC [5, 24]: 1.56 µg/mL (≈ 5.11 µM); MIC (Proteus morganii Kono): 1.56 µg/mL (≈ 5.11 µM); MIC [6, 33]: 0.39 µg/mL (≈ 1.28 µM); MIC [7, 25]: 3.13 µg/mL (≈ 10.3 µM); MIC [11, 27]: 1.56 µg/mL (≈ 5.11 µM); MIC [12, 37]: 0.39 µg/mL (≈ 1.28 µM); MIC [14, 38]: 0.2 µg/mL (≈ 0.655 µM); ED50 [19]: > 100 mg/kg; ED50 (Escherichia coli P-5101 [20]): > 50 mg/kg |
| CCn1cc(C(=O)O)c(=O)c2cc(Cl)c(N3CCCC3)nc21 [Compound B, 6-Chloro-1-ethyl-1,4-dihydro-4-oxo-7-(1-pyrrolidinyl)-1,8-naphthyridine-3-carboxylic acid] | – | > 200 | 50 (≈ 155 µM) | – | – | – | > 100 | – | – | 50 (≈ 155 µM) | – | – | 50 (≈ 155 µM) | 50 (≈ 155 µM) | > 100 | 25 (≈ 77.7 µM) | 50 (≈ 155 µM) | 50 (≈ 155 µM) | > 100 | > 100 | MIC [2, 40]: 6.25 µg/mL (≈ 19.4 µM); MIC [6, 33]: 6.25 µg/mL (≈ 19.4 µM); MIC [7, 44]: > 100 µg/mL; MIC [9, 45]: 50 µg/mL (≈ 155 µM); MIC [11, 46]: 50 µg/mL (≈ 155 µM); MIC [12, 37]: 12.5 µg/mL (≈ 38.8 µM); MIC [14, 38]: 6.25 µg/mL (≈ 19.4 µM); MIC [16, 47]: > 100 µg/mL; MIC [17, 48]: 3.13 µg/mL (≈ 9.73 µM); MIC [18, 49]: > 100 µg/mL |
| CCn1cc(C(=O)O)c(=O)c2cnc(N3CCCC3)nc21 [Compound E, 8-Ethyl-5,8-dihydro-5-oxo-2-(1-pyrrolidinyl)pyrido[2,3-d]pyrimidine-6-carboxylic acid] | 12.5 (≈ 43.4 µM) | > 200 | 12.5 (≈ 43.4 µM) | 12.5 (≈ 43.4 µM) | – | 12.5 (≈ 43.4 µM) | 12.5 (≈ 43.4 µM) | 12.5 (≈ 43.4 µM) | – | – | 12.5 (≈ 43.4 µM) | – | 25 (≈ 86.7 µM) | – | 50 (≈ 173 µM) | 25 (≈ 86.7 µM) | 25 (≈ 86.7 µM) | 25 (≈ 86.7 µM) | 25 (≈ 86.7 µM) | 25 (≈ 86.7 µM) | MIC [7, 44]: 50 µg/mL (≈ 173 µM); MIC (Escherichia coli P-5101 [8]; [26]): 12.5 µg/mL (≈ 43.4 µM); MIC [9, 45]: 200 µg/mL (≈ 694 µM); MIC [11, 46]: 25 µg/mL (≈ 86.7 µM); MIC [16, 47]: 100 µg/mL (≈ 347 µM); MIC (Escherichia coli P-140a; Escherichia coli): 12.5 µg/mL (≈ 43.4 µM); MIC [18, 49]: 100 µg/mL (≈ 347 µM) |
| CCn1cc(C(=O)O)c(=O)c2ccc(N3CCCC3)nc21 [Compound A, 1-Ethyl-1,4-dihydro-4-oxo-7-(1-pyrrolidinyl)-1,8-naphthyridine-3-carboxylicacid] | – | > 200 | > 200 | 6.25 (≈ 21.8 µM) | > 200 | 12.5 (≈ 43.5 µM) | 6.25 (≈ 21.8 µM) | 6.25 (≈ 21.8 µM) | > 200 | 3.13 (≈ 10.9 µM) | – | > 200 | – | 50 (≈ 174 µM) | > 200 | – | 50 (≈ 174 µM) | > 200 | > 200 | > 200 | MIC [1, 21]: > 200 µg/mL; MIC [2, 40]: 3.13 µg/mL (≈ 10.9 µM); MIC [7, 44]: > 200 µg/mL; MIC ([10]; ENTERITIDIS): 6.25 µg/mL (≈ 21.8 µM); MIC [11, 46]: 25 µg/mL (≈ 87 µM); MIC [17, 48]: 3.13 µg/mL (≈ 10.9 µM) |

From US4341784A, “Naphthyridine derivatives” (priority 1979, dated 1982)
